Data published in EP0000336A1, “N-benzylpyrimidinyl-amidines, process for their preparation and medicines containing them” (BASF Aktiengesellschaft, priority 1977, dated 1979).

System: Streptococcus agalactiae 7941
Experiment: Aronson sepsis model in mice, sulfonamide potentiation compared with trimethoprim
Type: in vivo
Conditions: female mice (groups of 30), lethal dose of Streptococcus agalactiae 7941; treated 2 h after infection with 300 mg 2-Sulfanilamido-4,5-dimethyloxazol + 60 mg test substance; survivors after 44 h divided by survivors of the group given 300 mg 2-Sulfanilamido-4,5-dimethyloxazol + 60 mg Trimethoprim
From the text: Verwendet man beispielsweise N-[4-Amino-5-(3,4,5-trimethoxybenzyl)-pyrimidin-2-yl]-acetamidsäureäthylester und Anilin als Ausgangsstoffe, so kann der Reaktionsverlauf durch folgendes Formelschema wiedergegeben werden: [drawing 7] 2um Wirksamkeitsnachweis wurden erfindungsgemäße Substanzen im Tierversuch am Modell der sogenannten Aronson-Sepsis, wobei mit Streptococcus agalactiae infiziert wird, geprüft und mit dem bekannten Trimethoprim verglichen. Hierzu wurden Gruppen von je 30 weiblichen Mäusen mit einer tödlichen Dosis von Streptococcus agalactiae 7941 infiziert und 2 Stunden nach der Infektion mit einer Mischung von 300 mg 2-Sulfanilamido-4,5-dimethyloxazol + 60 mg einer der erfindungsgemäßen Substanzen behandelt. Außer einer nicht behandelten Kontrollgruppe wurde eine zweite Gruppe mit dem als Referenzsubstanz dienenden Gemisch von 300 mg 2-Sulfanilamido-4,5-dimethyloxazol + 60 mg Trimethoprim behandelt. Nach 44 Stunden wurde die Zahl der überlebenden Tiere bestimmt und diese Zahl durch die Zahl der überlebenden aus der mit der Referenzsubstanz behandelten Gruppe dividiert. Der so erhaltene Zahlenwert (Trimethoprimfaktor) ist ein Maß für die Wirkung der erfindungsgemäßen Substanzen im Vergleich zum Trimethoprim. F = 2 bedeutet also, daß die Substanz doppelt so wirksam ist wie Trimethoprim. […]

COc1cc(Cc2cnc(N=C(C)N(C)C)nc2N)cc(OC)c1OC [Beispiel 1]
F (Trimethoprimfaktor): 1,2
